Converted amounts (≈) assume the structure as drawn. “And” between values parts separate entries of the source, which are not always exact repeats. Equal values may be shown once. Where a name gives a salt, the structure may show the parent alone. Read-outs that look alike come from different tables or passages of the source. Peptide text beside a SMILES is read from it. * marks the point of attachment. Lauroyl = CCCCCCCCCCCC(=O)*
Key:
[1] = Surface tension, pendant drop tensiometer (cmc, γc); format: physicochemical; details: for cmc: from surface tension
Procedure: Surface tension was measured using a custom-built pendant drop tensiometer, as described in detail in reference. Briefly, a droplet of surfactant solution is formed at the tip of a straight-cut Teflon tube. The image of the droplet is captured using a webcam, and its shape is analyzed by fitting the droplet profile to the Laplace–Young equation [14], To minimize evaporation, all measurements were conducted in a saturated humid atmosphere. The use of this technique is especially well-suited for cationic surfactants because it helps to mitigate complications related to surface adsorption. Critical micelle concentration values (cmc) were determined by finding the intersection of the linear fits before and after the break in the curves.

[2] = system: erythrocytes; experiment: Hemolytic activity assay; format: cell-based; details: rabbit erythrocytes
Procedure: Fresh rabbit blood was obtained from the Animal Facility of the CID-CSIC (Research and Development Center, Spanish National Research Council, Barcelona, Spain). Sample collection was conducted in strict compliance with the bioethical guidelines established under Spanish legislation. Erythrocytes were isolated by centrifugation (3000 rpm/10 min). The supernatant was discarded, and the erythrocytes were washed three times with PBS (phosphate-buffered saline, pH 7.4) and then resuspended in PBS at a concentration of 8 × 10^9 cells/mL. Subsequently, varying volumes of a concentrated surfactant solution were added to Eppendorf tubes containing 25 μL of erythrocyte suspension. PBS was then added to bring the total volume to 1 mL. The samples were gently shaken for 10 min at room temperature and centrifuged at 10,000 rpm for 5 min. Hemolysis was evaluated by measuring the absorbance of the supernatant at 540 nm and comparing it to that of a 100% hemolysis control (erythrocytes treated with distilled water). The HC50, defined as the surfactant concentration that induces 50% hemolysis, was determined from the concentration–response curves: % hemolysis= Abstest compound/AbsBasal haemolytic activity ×100

[3] = parameters: method as in PMID 36559096; details: conductivity values; cited from earlier work
[4] = system: Daphnia magna; experiment: Acute toxicity, immobilization test; format: in vivo; details: Daphnia magna, 48 h
Procedure: Aquatic toxicity evaluation was performed using Daphnia magna following established protocols. This bioassay method employs laboratory-cultured freshwater microcrustaceans to evaluate surfactant toxicity in aquatic environments. Test organisms were utilized during their initial 24 h life stage to ensure consistency. The endpoint measurement focused on mobility impairment, specifically the loss of swimming capability after gentle stimulation lasting 15 s. Testing conditions included controlled water chemistry parameters: pH maintained at 8.0, calcium-to-magnesium ratio of 4:1, and total hardness of 250 mg/L as CaCO3. All experiments were conducted under dark conditions at 20 °C. The experimental design incorporated ten test concentrations for each surfactant compound, distributed in geometric progression. Each concentration level included 20 Daphnia specimens distributed across four replicate groups of five organisms each. Mobility assessment occurred at 48 h post-exposure, with immobilization percentages plotted against concentration using probability–logarithmic scaling.

[5] = system: Cyberlindnera jadinii ATCC 60459 (C. jardinii); experiment: MIC broth microdilution; format: cell-based; details: for Selectivity Index (HC50/MIC): C. jardini; for MIC: Williopsis jadinii
Procedure: (§1) The antimicrobial activity of these compounds was assessed against selected yeast and bacterial strains: Candida albicans ATCC 90028 (CA9), Candida rugosa ATCC 10571 (CR), Candida glabrata ATCC 66032 (CG), Candida parapsilosis ATCC 22019 (CP), Candida tropicalis ATCC 7349 (CT), Candida auris ATCC 21092 (CA), and Cyberlindnera jadinii ATCC 60459. Frozen yeast stocks were plated on Sabouraud agar (SBA) and incubated at 30 °C for 24 h. Three to four colonies from each strain were then suspended in RPMI 1640 (Roswell Park Memorial Institute medium, Sigma- Aldrich, Merck, Darmstadt, Germany) to prepare bacterial dispersions of ~1.5 × 10^6 CFU/mL.
(§2) A broth microdilution assay was used to calculate MIC values. Twofold serially diluted compounds in RPMI 1640 medium (from 256 to 2 μg/mL), were dispensed (100 μL per well) into a 96-well plate. Then, 100 μL of a yeast starter culture was added to each well to reach a final inoculum of 7.5 × 10^5 CFU/mL. Wells containing only nutrient broth without the tested surfactant served as growth controls. Microbial growth was assessed by turbidity, which reflects increases in biomass and cell count. […] To confirm the obtained MICs, 20 μL of 0.015% (w/v) resazurin was dispensed to each well and incubated for 3 h at 30 °C. Metabolic activity was evidenced by a color change from blue to pink, thereby confirming the MIC value.

[6] = system: Candida albicans ATCC 90028; experiment: MIC broth microdilution; format: cell-based; details: C. albicans; for MIC: Candida albicans, ATCC90028, read-out: MIC
Procedure: as §1, §2

[7] = system: Candida tropicalis ATCC 7349; experiment: MIC broth microdilution; format: cell-based; details: C. tropicalis; for MIC: Candida tropicalis, ATCC7349, read-out: MIC
Procedure: as §1, §2

[8] = system: Candida glabrata ATCC 66032; experiment: MIC broth microdilution; format: cell-based
Procedure: as §1, §2

[9] = system: Candida auris ATCC 21092; experiment: MIC broth microdilution; format: cell-based; details: C. auris; for MIC: Candidozyma auris, ATCC21092, read-out: MIC
Procedure: as §1, §2

[10] = system: Candida parapsilosis ATCC 22019; experiment: MIC broth microdilution; format: cell-based; details: C. parapsilosis; for MIC: Lodderomyces parapsilosis, ATCC22019, read-out: MIC
Procedure: as §1, §2

[11] = system: Candida rugosa ATCC 10571; experiment: MIC broth microdilution; format: cell-based; details: C. rugosa; for MIC: Diutina rugosa, ATCC10571, read-out: MIC
Procedure: as §1, §2

[12] = system: Vibrio fischeri; experiment: Luminescence reduction test; format: cell-based; details: Aliivibrio fischeri, 0.25 h; Vibrio fischeri bioluminescence, 15 min of exposure; 95% confidence intervals in parentheses
Procedure: Ecotoxicological assessment of cationic surfactants was conducted using the Vibrio fischeri luminescent bioassay. This method relies on the measurement of decreased bioluminescent output from marine bacteria following contact with potentially toxic substances. Regression analysis was used to determine the concentration of the compound that caused a 50% reduction (EC50) in the amount of light emitted by the bacteria. The stated toxicity statistics given are based on the bacteria being exposed to the ionic liquid solution for 15 min at 15 °C.

[13] = Nakaseomyces glabratus, ATCC66032, 24 h, C. glabrata, RPMI 1640, 24 h, 30 °C, read-out: MIC
[14] = Nakaseomyces glabratus, ATCC66032, C. glabrata, value in parentheses, read-out: MIC

| Structure (SMILES) | γc (surface tension at the cmc) [1] | cmc [1] | HC50 ([2]; 10 min, room temperature) | HC50 ([2]; value in parentheses) | cmc Cond [3] | Selectivity Index (HC50/MIC) ([5]; Table S1) | MIC ([5]; ATCC60459, 24 h) | Selectivity Index (HC50/MIC) ([6]; Table S1) | MIC ([6]; RPMI 1640, 24 h, 30 °C) | MIC ([6]; value in parentheses) | MIC ([7]; RPMI 1640, 24 h, 30 °C) | MIC ([7]; value in parentheses) | MIC [8, 13] | MIC [8, 14] | MIC ([9]; RPMI 1640, 24 h, 30 °C) | MIC ([9]; value in parentheses) | MIC ([10]; RPMI 1640, 24 h, 30 °C) | MIC ([10]; value in parentheses) | MIC ([11]; RPMI 1640, 24 h, 30 °C) | MIC ([11]; value in parentheses) | further results |
| --- | --- | --- | --- | --- | --- | --- | --- | --- | --- | --- | --- | --- | --- | --- | --- | --- | --- | --- | --- | --- | --- |
| CCCCCCCCCCCC(=O)NC(CCCNC(=N)N)C(=O)OC (stereo not drawn) [C12AM] | 29.5 ± 1.5 mNm^−1 | 1.7 mM | 109 ± 0.6 µg/mL | 270 ± 1.7 µM | 6 mM | 1.7 | 64 µg/mL | 3.4 | 32 µg/mL | 78 µM | 8 µg/mL | 19 µM | 16 µg/mL | 39 µM | 128 µg/mL | 312 µM | 16 µg/mL | 39 µM | 64 µg/mL | 156 µM | EC50 [4]: 4.4 µg/mL (≈ 11.9 µM); MIC ([5]; ATCC60459): 156 µM; Selectivity Index (HC50/MIC) ([7]; Table S1): 14; Selectivity Index (HC50/MIC) ([8]; C. glabrata, Table S1): 7; Selectivity Index (HC50/MIC) ([9]; Table S1): 0.9; Selectivity Index (HC50/MIC) ([10]; Table S1): 7; Selectivity Index (HC50/MIC) ([11]; Table S1): 1.7; EC50 [12]: 1.9 µg/mL (≈ 5.13 µM) |
| CCCCCCCCCCCCNC(=O)C(CCCNC(=N)N)NC(=O)C(N)Cc1c[nH]c2ccccc12 (stereo not drawn) [TANHC12] | 28.7 ± 3.3 mNm^−1 | 2.5 mM | 16 ± 0.3 µg/mL | 27 ± 0.6 µM | 0.6 mM | 0.25 | 64 µg/mL | 0.25 | 64 µg/mL | 108 µM | 32 µg/mL | 54 µM | 128 µg/mL | 108 µM | 128 µg/mL | 216 µM | 32 µg/mL | 54 µM | 4 µg/mL | 7 µM | EC50 [4]: 3 µg/mL (≈ 5.68 µM); Selectivity Index (HC50/MIC) ([5]; Table S2): 0.25; MIC ([5]; ATCC60459): 108 µM; Selectivity Index (HC50/MIC) ([6]; Table S2): 0.25; Selectivity Index (HC50/MIC) ([7]; Table S1): 0.5; Selectivity Index (HC50/MIC) ([7]; Table S2): 0.5; MIC ([8]; C. glabrata, RPMI 1640, 24 h, 30 °C): 64 µg/mL; Selectivity Index (HC50/MIC) ([8]; C. glabrata, Table S1): 0.12; Selectivity Index (HC50/MIC) ([8]; C. glabrata, Table S2): 0.25; MIC ([8]; Nakaseomyces glabratus, ATCC66032, 24 h, C. glabrata, value in parentheses, read-out: MIC): 216 µM; Selectivity Index (HC50/MIC) ([9]; Table S1): 0.12; Selectivity Index (HC50/MIC) ([9]; Table S2): 0.1; Selectivity Index (HC50/MIC) ([10]; Table S1): 0.5; Selectivity Index (HC50/MIC) ([10]; Table S2): 0.5; Selectivity Index (HC50/MIC) ([11]; Table S1): 3.8; Selectivity Index (HC50/MIC) ([11]; Table S2): 4; EC50 [12]: 1.9 µg/mL (≈ 3.6 µM) |
| CCCCCCCCCCNC(=O)C(CCCNC(=N)N)NC(=O)C(N)Cc1c[nH]c2ccccc12 (stereo not drawn) [TANHC10] | 30.6 ± 2.0 mNm^−1 | 5.4 mM | 74 ± 2.8 µg/mL | 129 ± 5 µM | 1.7 mM | – | – | – | 64 µg/mL | 112 µM | 64 µg/mL | 112 µM | 64 µg/mL | 112 µM | 128 µg/mL | 224 µM | 64 µg/mL | 112 µM | 4 µg/mL | 7 µM | EC50 [4]: 9.7 µg/mL (≈ 19.4 µM); Selectivity Index (HC50/MIC) ([5]; Table S2): 1.15; MIC ([5]; ATCC60459, C. jardinii, RPMI 1640, 24 h, 30 °C, read-out: MIC): 64 µg/mL; MIC ([5]; ATCC60459, C. jardinii, value in parentheses, read-out: MIC): 112 µM; Selectivity Index (HC50/MIC) ([6]; Table S2): 1.15; Selectivity Index (HC50/MIC) ([7]; Table S2): 1.15; Selectivity Index (HC50/MIC) ([8]; C. glabrata, Table S2): 1.15; Selectivity Index (HC50/MIC) ([9]; Table S2): 0.6; Selectivity Index (HC50/MIC) ([10]; Table S2): 1.15; Selectivity Index (HC50/MIC) ([11]; Table S2): 18; EC50 [12]: 2.2 µg/mL (≈ 4.4 µM) |
| CCCCCCCCCCCCNC(=O)C(N)Cc1ccccc1 (stereo not drawn) [PNHC12, phenylalanine dodecyl amide hydrochloride] | 26.6 ± 0.8 mNm^−1 | 1.2 mM | 20 ± 0.6 µg/mL | 55 ± 1.7 µM | 1.2 mM | 0.6 | 32 µg/mL and 88 µM | 2.5 | 8 µg/mL | 22 µM | 32 µg/mL | 88 µM | 32 µg/mL | 88 µM | 32 µg/mL | 88 µM | 32 µg/mL | 88 µM | 32 µg/mL | 88 µM | Selectivity Index (HC50/MIC) ([7]; Table S1): 0.6; Selectivity Index (HC50/MIC) ([8]; C. glabrata, Table S1): 0.6; Selectivity Index (HC50/MIC) ([9]; Table S1): 0.6; Selectivity Index (HC50/MIC) ([10]; Table S1): 0.6; Selectivity Index (HC50/MIC) ([11]; Table S1): 0.6 |
| CCCCCCCCCCCC(=O)NC(Cc1ccccc1)C(=O)NC(CCCNC(=N)N)C(=O)OC (stereo not drawn) [C12PAM] (Lauroyl-Phe-Arg-OMe; configuration not given here) | 29.5 ± 2.7 mNm^−1 | 0.7 mM | 23 ± 0.8 µg/mL | 42 ± 1.5 µM | 1.2 mM | 0.4 | 64 µg/mL | 1.4 | 16 µg/mL | 29 µM | 16 µg/mL | 29 µM | 16 µg/mL | 29 µM | 32 µg/mL | 58 µM | 16 µg/mL | 29 µM | 4 µg/mL | 7 µM | MIC ([5]; ATCC60459): 116 µM; Selectivity Index (HC50/MIC) ([7]; Table S1): 1.4; Selectivity Index (HC50/MIC) ([8]; C. glabrata, Table S1): 1.4; Selectivity Index (HC50/MIC) ([9]; Table S1): 0.7; Selectivity Index (HC50/MIC) ([10]; Table S1): 1.4; Selectivity Index (HC50/MIC) ([11]; Table S1): 6 |

Source: publication PMC12452389, “Arginine-Derived Cationic Surfactants Containing Phenylalanine and Tryptophan: Evaluation of Antifungal Activity, Biofilm Eradication, Cytotoxicity, and Ecotoxicity” (Journal of Xenobiotics, 2025)
